pIC50: −log10 of the molar value. Read-outs that look alike come from different tables or passages of the source.

The target in this assay is Rat recombinant DYRK1A (Rattus norvegicus, UniProt Q63470). The assay is described as follows: Assaying of the kinase activity of DYRK1A (33P-ATP, myelin basic protein, P81 filter).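 Further: GST fusion rat DYRK1A made in E. coli, scintillation counting of label bound to substrate, activity as percent of the inhibitor-free maximum after blank subtraction.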 It counts as biochemical.
The mark [1] stands for this setting: 15 μM ATP, 30° C., 30 min, read-out: IC50 DYRK1A.

Protocol: Rat recombinant DYRK1A was expressed in E. coli as a GST fusion protein. It was purified by affinity chromatography on beads of immobilized glutathione (elution with free glutathione). […] After incubation at 30° C. for 30 min, 25-μL aliquots of supernatant were spotted onto Whatman P81 phosphocellulose filters and the filters were washed five times in a solution of phosphoric acid (10 ml/L water). The radioactivity incorporated into the substrate, retained on the moist filters, was then counted in the presence of ACS scintillation fluid (Amersham). The control values were subtracted and the activities were expressed as % of the maximum value, i.e. the value obtained in the absence of inhibitors. The IC50 values were calculated from dose-response curves and are given in μM.

One may read the pIC50 as the negative decadic logarithm of the IC50, by convention in mol/L. With `CN1C(=O)/C(=C/c2ccc3c(c2)OCO3)N=C1NCc1ccc2c(c1)OCO2` [MADE12], the pIC50 under setting [1] is 5.34.

Regarding `COc1cc(/C=C2\N=C(N)NC2=O)ccc1O` [ST325], the pIC50 under setting [1] is 6.77.

Take `O=C1NC(SCC2CCC2)=N/C1=C\c1ccc2c(c1)OCO2` [ST142]: the pIC50 under setting [1] was 6.11.

In the case of `C=CCSC1=N/C(=C\c2ccc3c(c2)OCO3)C(=O)N1C` [SB14], the pIC50 under setting [1] was 5.47.

Regarding `CCCCN1C(=O)/C(=C/c2ccc3c(c2)OCO3)N=C1NCCC` [JR442], the pIC50 under setting [1] is less than 5.00.

`CCCCSC1=N/C(=C\c2ccc3c(c2)OCO3)C(=O)N1C` [ST101]: the pIC50 under setting [1] is 5.64.

In the case of `CC(O)c1cccc(NC2=N/C(=C\c3ccc4c(c3)OCO4)C(=O)N2C)c1` (racemic) [MADE36], under setting [1], the pIC50 is 6.59.

With `CCSC1=N/C(=C\c2cc(Br)c3c(c2)OCO3)C(=O)N1C` [ST342], the pIC50 under setting [1] is less than 5.00.

Consider `CN1C(=O)/C(=C/c2ccc3c(c2)OCO3)N=C1NCCO` [MADE40], for which, under setting [1], the pIC50 was 6.14.

Turning to `CSC1=N/C(=C\c2ccccn2)C(=O)N1C` [JR160], under setting [1], the pIC50 is less than 5.00.

As to `CCCCNC1=N/C(=C\c2ccc3c(c2)OCO3)C(=O)N1C` [FCJR457], under setting [1], the pIC50 was 5.74.

In the case of `O=C1NC(Nc2ccc(O)cc2)=N/C1=C\c1ccc2c(c1)OCO2` [MADE48], the pIC50 under setting [1] is 7.08.

For `CCCCSC1=N/C(=C\c2c[nH]c3ccccc23)C(=O)N1C` [FB17], the pIC50 under setting [1] was less than 5.00.

On to `CN1C(=O)/C(=C/c2ccc3c(c2)OCO3)N=C1c1ccccc1` [NL39, (5Z)-5-(1,3-Benzodioxol-5-ylmethylene)-3-methyl-2-phenyl-3,5-dihydro-4H-imidazol-4-one], for which the pIC50 under setting [1] is 5.49.

On to `CCCNC1=N/C(=C\c2cc(OC)c(OC)c(OC)c2)C(=O)N1C` [FCFD14], for which the pIC50 under setting [1] was less than 5.00.

Consider `CN1C(=O)/C(=C/c2ccc(O)cc2)NC1=S` [ST076], for which the pIC50 under setting [1] is less than 5.00.

On to `CCCSC1=N/C(=C\c2ccc3c(c2)OCO3)C(=O)N1C` [ST094], for which the pIC50 under setting [1] was 5.74.

With `COc1cc(/C=C2\N=C(SC)N(C)C2=O)cc(OC)c1OC` [JR161], under setting [1], the pIC50 is less than 5.00.

Consider `O=C1/C(=C/c2ccc3c(c2)OCO3)NC(=S)N1c1ccccc1` [JR370], for which the pIC50 under setting [1] was less than 5.00.

With `COC(=O)NCCNC1=N/C(=C\c2ccc3c(c2)OCO3)C(=O)N1C` [MADE24], under setting [1], the pIC50 was less than 5.00.

Consider `CN1C(=O)C(=Cc2c[nH]c3ccccc23)NC1=S` [ST197], for which the pIC50 under setting [1] is less than 5.00.

For the compound `COCCSC1=N/C(=C\c2ccc3c(c2)OCO3)C(=O)N1C` [SA197], the pIC50 under setting [1] is 5.60.

In the case of `CN1C(=O)/C(=C/c2ccc3c(c2)OCO3)N=C1Nc1ccccc1O` [MADE9], under setting [1], the pIC50 was 6.16.

As to `CCCNC1=N/C(=C\c2ccccc2)C(=O)N1C` [FCFD08], the pIC50 under setting [1] was less than 5.00.

With `CCSC1=N/C(=C\c2ccc3c(c2)OCO3)C(=O)N1C` [SB26, (5Z)-5-(1,3-benzodioxol-5-ylmethylene)-3-methyl-2-(ethylthio)-3,5-dihydro-4H-imidazol-4-one], the pIC50 under setting [1] was 5.85.

As to `CCOC(=O)C(=O)NC1=N/C(=C\c2ccc3c(c2)OCO3)C(=O)N1C` [IA35], under setting [1], the pIC50 is less than 5.00.

For `CN1C(=O)/C(=C/c2ccc3c(c2)OCO3)N=C1Nc1cccc(CO)c1` [MADE37], the pIC50 under setting [1] is 6.64.

For the compound `CN1C(=O)/C(=C/c2ccc3c(c2)OCO3)N=C1Nc1ccc2c(c1)OCCO2` [MADE29], the pIC50 under setting [1] is 6.72.

With `CN1C(=O)/C(=C/c2ccc3c(c2)OCO3)N=C1Nc1ccc(O)cc1` [MADE8], under setting [1], the pIC50 is 6.42.

On to `CN1C(=O)/C(=C/c2ccc3c(c2)OCO3)N=C1c1ccc2c(c1)OCO2` [NL88A], for which, under setting [1], the pIC50 is 6.66.

Regarding `CN1C(=O)/C(=C/c2ccc3c(c2)OCO3)N=C1NCc1ccccc1` [FC097], the pIC50 under setting [1] was 5.85.

Regarding `CSC1=N/C(=C\c2ccccc2O)C(=O)N1C` [JR159], the pIC50 under setting [1] is less than 5.00.

On to `CN1C(=O)/C(=C/c2ccc3c(c2)OCO3)N=C1NCCCO` [SA142], for which, under setting [1], the pIC50 is 5.89.

Regarding `COc1cc(/C=C2\N=C(NC(C)C)N(C)C2=O)cc(OC)c1OC` [FC104b], the pIC50 under setting [1] was less than 5.00.

On to `CCOC(=O)CSC1=N/C(=C\c2ccc3c(c2)OCO3)C(=O)N1C` [JR404], for which, under setting [1], the pIC50 is 5.24.

In the case of `CN1C(=O)/C(=C/c2ccc3c(c2)OCO3)N=C1Nc1ccc(O)c(C(=O)O)c1` [MADE33], the pIC50 under setting [1] is 6.03.

In the case of `NC1=N/C(=C\c2ccc(O)c(O)c2)C(=O)N1` [ST326], under setting [1], the pIC50 was less than 5.00.

Regarding `CN1C(=O)/C(=C/c2ccc3c(c2)OCO3)N=C1NCCCCCO` [MADE23], the pIC50 (IC50 DYRK1A) is 5.52.

With `C=CCNC1=N/C(=C\c2ccc3c(c2)OCO3)C(=O)N1C` [FCFD13], the pIC50 under setting [1] was 5.80.

`CCSC1=N/C(=C\c2ccc(OC)c(OC)c2)C(=O)N1C` [SB55]: the pIC50 under setting [1] is less than 5.00.

For `C#CCSC1=N/C(=C\c2ccc3c(c2)OCO3)C(=O)N1C` [SB16], the pIC50 under setting [1] is 6.05.

For the compound `CN1C(=O)/C(=C/c2ccc3c(c2)OCO3)N=C1Nc1ccccc1` [MADE32], the pIC50 under setting [1] is 6.40.

Turning to `CCCNC1=N/C(=C\c2ccc3c(c2)OCO3)C(=O)N1C` [FCJR405, (5Z)-5-Benzo[1,3]dioxol-5-ylmethylene-3-methyl-2-propylamino-3,5-dihydroimidazol-4-one], the pIC50 under setting [1] is 5.64.

For the compound `CSC1=N/C(=C\c2ccc(O)cc2)C(=O)N1C` [ST078], under setting [1], the pIC50 is 5.17.

On to `CCCCN1C(=O)/C(=C/c2ccc3c(c2)OCO3)NC1=S` [JR361], for which, under setting [1], the pIC50 was less than 5.00.

Consider `CN1C(=O)/C(=C/c2ccc3c(c2)OCO3)N=C1NCC(O)CO` (stereo not shown) [MADE47], for which the pIC50 under setting [1] is 6.10.

Take `CN1C(=O)/C(=C/c2ccc3c(c2)OCO3)N=C1NCC1CC1` [FC107]: under setting [1], the pIC50 was 6.01.

Regarding `O=C1NC(SCC2CC2)=N/C1=C\c1ccc2c(c1)OCO2` [ST130], the pIC50 under setting [1] was 6.30.

With `CSC1=N/C(=C\c2ccccc2)C(=O)N1C` [JR158], the pIC50 under setting [1] was less than 5.00.

With `CN1C(=O)/C(=C/c2ccc3c(c2)OC(F)(F)O3)NC1=S` [ST089], the pIC50 under setting [1] was less than 5.00.

Consider `COc1cc(/C=C2\NC(=S)NC2=O)cc(Br)c1O` [ST229], for which the pIC50 under setting [1] is 4.19.

As to `CCCCN1C(=O)/C(=C/c2ccc3c(c2)OCO3)N=C1SC` [JR448], the pIC50 under setting [1] was less than 5.00.

Regarding `CCSC1=N/C(=C\c2ccc3c(c2)OCO3)C(=O)N1` [ST120], the pIC50 under setting [1] is 6.36.

Turning to `CN1C(=O)/C(=C/c2ccc3c(c2)OCO3)N=C1Nc1ccc2c(c1)OCO2` [MADE30], the pIC50 under setting [1] was 6.43.

`CSC1=N/C(=C\c2ccc(Br)cc2)C(=O)N1C` [JR162]: under setting [1], the pIC50 was less than 5.00.

`O=C1NC(=S)N/C1=C\c1ccc(O)c(O)c1` [ST227]: the pIC50 under setting [1] is 4.18.

Take `CCSC1=N/C(=C\c2ccc(O)c(O)c2)C(=O)N1` [ST286]: the pIC50 under setting [1] is less than 5.00.

Take `CN1C(=O)/C(=C/c2ccc3c(c2)OCO3)N=C1SCc1ccccc1` [SB28]: under setting [1], the pIC50 was 5.24.

Turning to `CCCNC1=N/C(=C\c2ccc3c(c2)OC(F)(F)O3)C(=O)N1C` [ST092], the pIC50 under setting [1] was less than 5.00.

Take `O=C1NC(Nc2ccccc2)=N/C1=C\c1ccc2c(c1)OCO2` [MADE44]: under setting [1], the pIC50 is 7.15.

With `COCCSC1=N/C(=C\c2ccc3c(c2)OCO3)C(=O)N1` [ST164], the pIC50 under setting [1] is 6.19.

Regarding `CSC1=N/C(=C\c2ccc3c(c2)OCO3)C(=O)N1` [ST105], the pIC50 under setting [1] is 6.17.

Turning to `CSC1=N/C(=C\c2ccc3c(c2)OCO3)C(=O)N1C` [ST099], the pIC50 under setting [1] was 5.17.

Regarding `CN1C(=O)/C(=C/c2ccc3c(c2)OCO3)N=C1NC(=O)C(C)(C)C` [IA31], the pIC50 under setting [1] is 5.47.

On to `CC(C)SC1=N/C(=C\c2ccc3c(c2)OCO3)C(=O)N1` [ST135], for which the pIC50 under setting [1] is 6.34.

Consider `CN1C(=O)/C(=C/c2ccc3c(c2)OCO3)N=C1SCC#N` [ST211], for which the pIC50 under setting [1] is 6.33.

Regarding `CN1C(=O)/C(=C/c2ccc3c(c2)OCO3)N=C1Nc1ccccc1` [MADE42], the negative logarithm of the IC50 (pIC50) under setting [1] was 6.37.

Take `CCCCN1C(=O)/C(=C/c2ccc3c(c2)OCO3)N=C1SCc1ccccc1` [SB10]: the pIC50 under setting [1] is less than 5.00.

In the case of `CCSC1=N/C(=C\c2ccc(O)c(OC)c2)C(=O)N1C` [ST170], the pIC50 under setting [1] is less than 5.00.

`CCCCN1C(=O)/C(=C/c2ccc3c(c2)OCO3)N=C1SCC` [SB05]: under setting [1], the pIC50 was less than 5.00.

With `CC(=O)NC1=N/C(=C\c2ccc3c(c2)OCO3)C(=O)N1C` [IA24], the pIC50 under setting [1] was less than 5.00.

As for `CN1C(=O)/C(=C/c2ccc3c(c2)OCO3)N=C1SCC1CC1` [ST102], under setting [1], the pIC50 is 5.82.

Turning to `CCCNC1=N/C(=C\c2ccc3c(c2)OCO3)C(=O)N1c1ccccc1` [JR445], the pIC50 under setting [1] was less than 5.00.

With `CCSC1=N/C(=C\c2ccc(O)c(OC)c2)C(=O)N1` [ST240], the pIC50 under setting [1] is 5.59.

`COC(CNC1=N/C(=C\c2ccc3c(c2)OCO3)C(=O)N1C)OC` [MADE10]: the pIC50 under setting [1] was 5.85.

On to `CCSC1=N/C(=C\c2c[nH]c3ccccc23)C(=O)N1C` [FB08], for which the pIC50 under setting [1] was less than 5.00.

Regarding `N#CCSC1=N/C(=C\c2ccc3c(c2)OCO3)C(=O)N1` [ST209], the pIC50 under setting [1] was 6.77.

In the case of `C=CC(=O)NC1=N/C(=C\c2ccc3c(c2)OCO3)C(=O)N1C` [IA32], the pIC50 under setting [1] is 4.82.

For `CCCCN1C(=O)/C(=C/c2ccc(OC)c(OC)c2)N=C1SCC` [SB58], the pIC50 under setting [1] is less than 5.00.

For the compound `C=CCSC1=N/C(=C\c2ccc3c(c2)OCO3)C(=O)N1CCCC` [SB25], under setting [1], the pIC50 was less than 5.00.

With `CCCCSC1=N/C(=C\c2ccc3c(c2)OCO3)C(=O)N1` [ST124], the pIC50 under setting [1] was 6.23.

Regarding `CC(C)NC1=N/C(=C\c2ccccc2)C(=O)N1C` [FC095], the pIC50 under setting [1] is less than 5.00.

`CC(C)CNC1=N/C(=C\c2ccc3c(c2)OCO3)C(=O)N1C` [FCFD24]: the pIC50 under setting [1] was less than 5.00.

Turning to `CC(C)NC1=N/C(=C\c2ccc3c(c2)OCO3)C(=O)N1C` [FCJR232], under “IC50 DYRK1A, 15 μM ATP, 30° C., 30 min”, the pIC50 was 5.89.

Turning to `CCCCNC1=N/C(=C\c2ccc3c(c2)OCO3)C(=O)N1CCCC` [FCJR464], the pIC50 under setting [1] was less than 5.00.

Regarding `CC(C)NC1=N/C(=C\c2ccccn2)C(=O)N1C` [FC109], the pIC50 under setting [1] is less than 5.00.

Take `CN1C(=O)/C(=C/c2ccc3c(c2)OCO3)N=C1NC(=O)Cc1ccccc1` [IA25]: under setting [1], the pIC50 is less than 5.00.

On to `CCCSC1=N/C(=C\c2c[nH]c3ccccc23)C(=O)N1C` [FB14], for which the pIC50 under setting [1] is less than 5.00.

Source of the values: US8563588B2, “Imidazolone derivatives, method for the preparation thereof and biological applications” (Universite de Rennes 1, priority 2007, dated 2013).
